Reference: publication PMC10112232, “Comparison of Toxicities among Different Bumped Kinase Inhibitor Analogs for Treatment of Cryptosporidiosis” (Antimicrobial Agents and Chemotherapy, 2023)
pEC50, pIC50: −log10 of the molar value. Like-named read-outs stand apart in the source and are kept apart here.

Experiments:
[1] = Multidose calf toxicity study; assay type: in vivo; details: calves
Protocol: Male and female calves were dosed orally with 7.5 or 15 mg/kg BID for 5 days. Adverse effects began on day 4, so the 7.5 mg/kg group received 9 doses total and the 15 mg/kg group received 7 doses total before the experiment was terminated.
(§1) A control group of male and female rats were administered vehicle only for controls. […] Observations of feeding and general health were made twice daily. Clinical assessments were made at 1 h after each treatment. Blood was collected for hematology and blood chemistry before the first dose and prior to euthanasia. Necropsy and histology of organs (Liver, heart, lung, kidney, spleen, thymus, brain, spinal cord, nerves of the front and back legs, including muscle, bone marrow femur, stomach, small and large intestine, including lymph nodes, and femur and sternum, including epiphyseal plates, distal hind limb, and thyroid gland) were performed after euthanasia.

[2] = 14-day multidose rat toxicity study; assay type: in vivo; details: rats
Protocol: as §1

[3] = tested on: C. hominis; assay: Efficacy in neonatal gnotobiotic piglets infected with C. hominis; assay type: in vivo; details: 5 mg/kg BID
Protocol: Rectal swabs were processed for oocyst count and DNA measurement. The plot represents mean ± SEM. Wilcoxon matched-pairs signed rank test was conducted using GraphPad Prism 7.03. […] The 5 day doses were given on days 0–4, the 8 day doses were given on days 0–7.
(§2) Methods for synthesis of BKIs ([17], [23]), efficacy against Nluc expressing C. parvum in infected adult IFN-γ KO mice ([6], [9]), in vivo mouse GI tract tissue exposure by LC/MS-MS analysis ([18], [28]), PK analysis of mouse plasma and brain tissue BKI concentrations by LC/MS-MS analysis ([29]), in vivo rat and dog cardiotoxicity screen ([30]), efficacy against IOWA-II strain C. parvum in infected neonatal calves ([13]), efficacy against C. hominis in infected piglets ([12]), in vitro inhibition of C. parvum CDPK1 (CpCDPK1) and human tyrosine kinase SRC (HsSRC) activity ([31]), in vitro inhibition of hERG ([32]), Nluc expressing C. parvum in vitro growth inhibition in infected HCT-8 cells ([6]), in vitro cytotoxicity in CRL-8155 and HepG2 cells ([29]), and mouse locomotor activity box ([33], [34]) have all been previously described. Analytes were measured by LC/MS-MS on an Acquity ultra performance liquid chromatography (UPLC) system in tandem with a Xevo TQ-S mass spectrometer (Waters, Milford, MA, USA).

[4] = target: T1, C. parvum calcium dependent protein kinase 1 (CpCDPK1) (Cryptosporidium parvum, UniProt A3FQ16); set-up: method as in PMID 30830766; details: read-out: CpCDPK1 IC50; cited from earlier work
T1 sequence (A3FQ16 1-538): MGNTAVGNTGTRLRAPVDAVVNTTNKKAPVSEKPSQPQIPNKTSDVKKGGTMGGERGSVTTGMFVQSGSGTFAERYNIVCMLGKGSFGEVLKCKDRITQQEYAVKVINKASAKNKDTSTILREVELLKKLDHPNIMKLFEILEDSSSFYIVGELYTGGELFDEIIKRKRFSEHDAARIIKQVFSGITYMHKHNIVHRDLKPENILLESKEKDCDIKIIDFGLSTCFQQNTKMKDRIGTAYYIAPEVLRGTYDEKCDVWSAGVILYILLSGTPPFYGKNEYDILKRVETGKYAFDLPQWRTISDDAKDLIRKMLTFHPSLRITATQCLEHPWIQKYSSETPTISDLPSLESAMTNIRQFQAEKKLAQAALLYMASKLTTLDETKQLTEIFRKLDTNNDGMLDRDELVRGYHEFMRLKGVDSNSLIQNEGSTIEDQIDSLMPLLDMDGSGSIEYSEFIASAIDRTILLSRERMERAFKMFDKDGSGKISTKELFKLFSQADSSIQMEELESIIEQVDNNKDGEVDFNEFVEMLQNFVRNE

[5] = cited from earlier work; for HR / MAP / dP/dt@50: rat
[6] = tested on: HepG2 cells; set-up: method as in PMID 30830766; details: cited from earlier work
[7] = tested on: Nluc expressing C. parvum; assay: Nluc expressing C. parvum in vitro growth inhibition in infected HCT-8 cells; assay type: cell-based; details: Cryptosporidium parvum
Description: as §2

[8] = tested on: Nluc expressing C. parvum; assay: Efficacy in IFN-γ KO mice infected with Nluc expressing C. parvum; assay type: in vivo; details: for difference in parasite excretion vs untreated control: n = 3
Protocol: BKI-1841 was also tested at doses of 60, 30, 15, and 5 mg/kg once daily (QD) for 5 days, resulting in a minimum efficacious dose of 30 mg/kg that cleared parasite excretion to background levels by day 13 postinfection (Fig. 4).
FIG 4 Efficacy of BKI-1841 in interferon-γ knockout mice infected with nanoluciferase expressing C. parvum. Treatments were separated into two separate experiments for BKI-1841. Untreated control groups for each experiment are grouped with their associated treatment in the figure keys. Dotted line denotes the limit of detection. Treatments were dosed on days 6 through 10 postinfection. […] QD = once daily.
as §2

[9] = In vitro cytotoxicity in CRL-8155 cells; assay type: cell-based; details: human
Description: as §2

[10] = target: hERG (Homo sapiens, UniProt Q12809); assay: In vitro inhibition of hERG; assay type: biochemical
Sequence of hERG (Q12809 whole entry): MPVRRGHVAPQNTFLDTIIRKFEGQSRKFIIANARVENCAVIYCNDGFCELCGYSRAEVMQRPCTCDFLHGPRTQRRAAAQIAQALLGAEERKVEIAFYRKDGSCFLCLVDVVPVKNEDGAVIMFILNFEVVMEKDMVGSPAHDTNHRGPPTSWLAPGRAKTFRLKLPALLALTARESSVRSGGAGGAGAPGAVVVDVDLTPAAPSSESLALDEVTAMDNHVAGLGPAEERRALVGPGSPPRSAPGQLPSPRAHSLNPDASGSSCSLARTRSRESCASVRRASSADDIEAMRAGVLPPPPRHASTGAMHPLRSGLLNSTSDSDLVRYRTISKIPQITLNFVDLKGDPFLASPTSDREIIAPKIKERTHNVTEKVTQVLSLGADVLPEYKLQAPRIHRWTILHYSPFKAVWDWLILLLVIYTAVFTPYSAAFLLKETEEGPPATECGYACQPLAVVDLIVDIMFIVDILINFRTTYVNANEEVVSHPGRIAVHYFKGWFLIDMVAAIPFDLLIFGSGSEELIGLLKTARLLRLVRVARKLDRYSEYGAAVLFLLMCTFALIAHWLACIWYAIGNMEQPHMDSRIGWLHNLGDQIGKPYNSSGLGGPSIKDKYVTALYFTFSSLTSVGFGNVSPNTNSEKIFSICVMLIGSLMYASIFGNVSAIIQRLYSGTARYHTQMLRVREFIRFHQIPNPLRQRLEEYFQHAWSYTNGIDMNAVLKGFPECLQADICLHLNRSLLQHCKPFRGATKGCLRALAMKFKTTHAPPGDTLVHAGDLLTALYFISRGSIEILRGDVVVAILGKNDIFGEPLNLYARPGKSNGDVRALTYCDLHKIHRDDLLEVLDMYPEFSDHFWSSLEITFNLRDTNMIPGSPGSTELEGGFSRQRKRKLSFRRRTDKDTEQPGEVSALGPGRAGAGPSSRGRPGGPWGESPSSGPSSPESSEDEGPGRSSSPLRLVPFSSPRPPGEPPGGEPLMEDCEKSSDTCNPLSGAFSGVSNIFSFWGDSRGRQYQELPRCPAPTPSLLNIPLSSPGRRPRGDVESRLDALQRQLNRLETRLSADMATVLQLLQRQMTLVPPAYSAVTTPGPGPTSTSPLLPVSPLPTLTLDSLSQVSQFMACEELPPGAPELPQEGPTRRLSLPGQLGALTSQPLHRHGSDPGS
Description: as §2

[11] = target: T1, C. parvum calcium dependent protein kinase 1 (CpCDPK1); assay: In vitro inhibition of CpCDPK1; assay type: biochemical
Description: as §2

[12] = target: human tyrosine kinase SRC (HsSRC) (Homo sapiens, UniProt P12931); assay: In vitro inhibition of HsSRC; assay type: biochemical; details: read-out: HsSR IC50
Sequence of human tyrosine kinase SRC (HsSRC) (P12931 whole entry): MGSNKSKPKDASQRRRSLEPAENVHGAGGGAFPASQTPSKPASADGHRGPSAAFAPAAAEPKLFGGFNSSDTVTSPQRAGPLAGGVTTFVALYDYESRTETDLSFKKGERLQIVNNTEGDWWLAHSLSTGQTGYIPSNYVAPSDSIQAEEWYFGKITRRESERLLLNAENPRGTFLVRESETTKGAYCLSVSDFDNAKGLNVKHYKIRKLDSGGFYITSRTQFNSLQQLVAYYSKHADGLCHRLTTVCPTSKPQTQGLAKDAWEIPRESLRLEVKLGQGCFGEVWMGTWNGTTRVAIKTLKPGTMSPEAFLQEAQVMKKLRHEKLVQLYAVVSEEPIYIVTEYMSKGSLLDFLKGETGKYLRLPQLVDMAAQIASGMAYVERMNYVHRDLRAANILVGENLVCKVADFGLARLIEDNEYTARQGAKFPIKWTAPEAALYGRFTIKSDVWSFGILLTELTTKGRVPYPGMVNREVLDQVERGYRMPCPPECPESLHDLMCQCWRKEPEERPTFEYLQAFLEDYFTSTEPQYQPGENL
Description: as §2

CCOc1ccc2cc(-c3nn(C(C)(C)CCO)c(N)c3C(N)=O)ccc2c1 [BKI-1770]
bone findings ([1]; both 7.5 and 15 mg/kg BID groups): changes to the epiphyseal growth plates in the femur and sternum | locomotion findings ([1]; oral 15 mg/kg BID, 7 doses total): locomotion problems on days 2 and 3 | plasma concentration ([2]; 15 mg/kg group): 2.4 µM | plasma concentration ([2]; 375 mg/kg group): 11.8 µM | toxicity findings ([2]; oral 15 mg/kg QD, 14 days): no signs of toxicity | toxicity findings ([2]; oral 75 mg/kg QD, 14 days): some signs of bone toxicity, including thickened epiphyseal plates and increased spongiosa | toxicity findings ([2]; oral 375 mg/kg QD): euthanized after 7 doses due to extreme signs of toxicity | oocyst counts in feces vs controls ([3]; 5-day treatment (P = 0.001)): significantly reduced | oocyst counts in feces vs controls ([3]; 8-day treatment (P = 0.0168)): significantly reduced | diarrhea scores ([3]; both 5- and 8-day treatment groups): significantly reduced | pIC50 [4]: 8.70 | effects on MAP, HR, left ventricular contractility vs vehicle ([5]; anesthetized rats, 30-minute IV infusions of 3, 10, 30 mg/kg, significant >15%): No significant effects | HR ([5]; IV 3 mg/kg): 8% | MAP ([5]; IV 3 mg/kg): -7% | dP/dt@50 ([5]; IV 3 mg/kg): 0% | HR ([5]; IV 10 mg/kg): 8% | MAP ([5]; IV 10 mg/kg): 5% | dP/dt@50 ([5]; IV 10 mg/kg): 9% | HR ([5]; IV 30 mg/kg): 3% | MAP ([5]; IV 30 mg/kg): -7% | dP/dt@50 ([5]; IV 30 mg/kg): 8% | signs of cardiotoxicity ([5]; rats): no signs of cardiotoxicity | CC50 [6]: > 80000 nM

CCOc1ccc2cc(-c3nn(C4CCOCC4)c(N)c3C(N)=O)ccc2n1 [BKI-1841]
pEC50 [7]: 6.15 | difference in parasite excretion vs untreated control ([8]; 5 mg/kg QD days 6-10 postinfection): no significant difference | difference in parasite excretion vs untreated control ([8]; 15 mg/kg QD days 6-10 postinfection): no significant difference | difference in parasite excretion vs untreated control ([8]; 30 mg/kg QD days 6-10 postinfection): Significant differences | difference in parasite excretion vs untreated control ([8]; 60 mg/kg QD days 6-10 postinfection): Significant differences | minimum efficacious dose ([8]; IFN-γ KO mice, once daily (QD) for 5 days, cleared parasite excretion to background by day 13 postinfection): 30 mg/kg | CC50 [9]: > 80000 nM | pIC50 [10]: < 4.52 | pIC50 [11]: 8.52 | pIC50 [12]: < 5.00
